Source: ChEMBL document CHEMBL1138508, “Design, synthesis, and pharmacological effects of a cyclization-activated steroid prodrug for colon targeting in inflammatory bowel disease” (J Med Chem, 2009)
The source made the active and inactive calls. The rule behind the calls is not given here.

Legend:
Mus musculus [1] = test: Inhibition of dextran sodium sulfate-induced ulcerative colitis in po dosed BALB/c mouse assessed as decrease in body weight loss administered twice daily for 6 days relative to control; format: functional, organism-based
Mus musculus [2] = test: Inhibition of dextran sodium sulfate-induced ulcerative colitis in po dosed BALB/c mouse assessed as decrease in disease activity index administered twice daily for 6 days relative to control; format: functional, organism-based
Mus musculus [3] = test: Inhibition of dextran sodium sulfate-induced ulcerative colitis in po dosed BALB/c mouse assessed as decrease in colon shortening administered twice daily for 6 days relative to control; format: functional, organism-based
Mus musculus [4] = test: Toxicity in dextran sodium sulfate treated po dosed BALB/c mouse ulcerative colitis model assessed as reduction in thymus weight to body weight ratio administered twice daily for 6 days relative to control; format: organism-based; conditions: in vivo, 144 h
[5] = Apparent permeability from basolateral to apical side in human Caco-2 cells by HPLC; format: ADME, cell-based
Mus musculus [6] = test: Inhibition of dextran sodium sulfate-induced ulcerative colitis in BALB/c mouse assessed as decrease in body weight loss at 5 mg/kg, po twice daily for 6 days relative to control; format: functional, organism-based; set-up: dose 5 mg/kg
Mus musculus [7] = test: Inhibition of dextran sodium sulfate-induced ulcerative colitis in BALB/c mouse assessed as decrease in disease activity index at 5 mg/kg, po twice daily for 6 days relative to control; format: functional, organism-based; set-up: dose 5 mg/kg
Mus musculus [8] = test: Inhibition of dextran sodium sulfate-induced ulcerative colitis in BALB/c mouse assessed as decrease in colon shortening at 5 mg/kg, po twice daily for 6 days relative to control; format: functional, organism-based; set-up: dose 5 mg/kg
Mus musculus [9] = test: Toxicity in dextran sodium sulfate treated BALB/c mouse ulcerative colitis model assessed as reduction in thymus weight to body weight ratio at 5 mg/kg, po administered twice daily for 6 days relative to control; format: organism-based; set-up: dose 5 mg/kg, route oral; conditions: in vivo, 144 h
[10] = Stability in human gastric juice after 24 hrs; format: ADME, tissue-based
[11] = Stability at pH 3.4 to 7.4 after 24 hrs; format: physicochemical; conditions: buffer, pH 3.4, 24 h
[12] = Stability at pH 8 to 9 after 24 hrs; format: physicochemical; conditions: buffer, pH 8, 24 h
[13] = Stability assessed as half life at pH 8 by HPLC; format: physicochemical; conditions: buffer
[14] = Stability assessed as half life at pH 7.4 by HPLC; format: physicochemical; conditions: buffer
[15] = Stability assessed as half life at pH 4 by HPLC; format: physicochemical; conditions: buffer
[16] = Stability assessed as half life at pH 2.6 by HPLC; format: physicochemical; conditions: buffer
[17] = Chemical stability assessed as half life at neutrality pH; format: physicochemical

In the case of C[C@]12C=CC(=O)C=C1CC[C@@H]1[C@@H]2[C@@H](O)C[C@@]2(C)[C@H]1CC[C@]2(O)C(=O)CO [PREDNISOLONE], the Activity (Mus musculus [1]) is reported as “Active”, the Activity (Mus musculus [2]) is reported as “Active” and the Activity (Mus musculus [3]) is reported as “Active”. The Activity (Mus musculus [4]) was “Toxic”.
With C[C@]12C=CC(=O)C=C1CC[C@@H]1[C@@H]2[C@@H](O)C[C@@]2(C)[C@H]1CC[C@]2(O)C(=O)COC(=O)CCc1ccccc1/N=N/c1ccc(O)c(C(=O)O)c1 the Papp B→A [5] was 14 ×10⁻⁶ cm/s, the Activity (Mus musculus [6]) was “Active” and the Activity (Mus musculus [7]) was “Active”. For the same compound, the Activity (Mus musculus [8]) was “Active”, the Activity (Mus musculus [9]) was “Non-toxic” and the Stability [10] was “Stable”. For the same compound, the Stability [11] was “Stable” and the Stability [12] was “Unstable”.
C[C@]12CCC(=O)C=C1CC[C@@H]1[C@@H]2[C@@H](O)C[C@@]2(C)[C@H]1CC[C@]2(O)C(=O)COC(=O)CCc1ccccc1N showed a half-life [13] of 44 min, a half-life [14] of 73 min and a half-life [15] of 30 min. The half-life [16] was 54 min.
Work on COC(=O)CCc1ccccc1N yielded a half-life [17] of 57 min.
For C[C@]12C=CC(=O)C=C1CC[C@@H]1[C@@H]2[C@@H](O)C[C@@]2(C)[C@H]1CC[C@]2(O)C(=O)COC(=O)Cc1ccccc1/N=N/c1ccc(O)c(C(=O)O)c1, the Activity (Mus musculus [6]) was “inactive”, the Activity (Mus musculus [7]) was “inactive” and the Activity (Mus musculus [8]) was “inactive”. The Activity (Mus musculus [9]) was “Non-toxic”.
